The values that follow come from patent US9822414B2, “In vitro method for predicting in vivo genotoxicity of chemical compounds” (priority 2011, dated 2017).

Several values for one entry are separate records, joined by “and”; a condition that tells them apart may be missing. Equal values may be shown once. Read-outs that look alike come from different tables or passages of the source.

Data set [1] deals with HepG2 cell.
Data set [2] concerns conventional in vitro genotoxicity assays. Particulars: cited from earlier work.
The next data set deals with rodents. As to conditions: in vivo; cited from earlier work.
A further data set has as its system Salmonella typhimurium. Particulars: Ames results based on NTP data; cited from earlier work.
A further data set concerns C10orf65/HOGA1. Nature of the data set: Gene expression of C10orf65/HOGA1 in HepG2 cells exposed to compound (microarray, log2 treatment:control ratio). It is filed as cell-based, human. As to conditions: for Log2 treatment: control ratio C10orf65/HOGA1: 24 h exposure, Ames negative compounds, one line per replicate of triplicate experiments; for C10orf65/HOGA1: expression versus reference value, single measurement of three.

Another data set deals with PNMA6A. Nature of the data set: Gene expression of PNMA6A in HepG2 cells exposed to compound (microarray, log2 treatment:control ratio). Particulars: HepG2 cells; for Log2 treatment: control ratio PNMA6A: 24 h exposure, Ames negative compounds, one line per replicate of triplicate experiments; for PNMA6A: expression versus reference value, single measurement of three. In kind it is cell-based, human.

A further data set relates to SLC40A1. The data set is described as follows: Gene expression of SLC40A1 in HepG2 cells exposed to compound (microarray, log2 treatment:control ratio). In kind it is cell-based, human. As to conditions: HepG2 cells; for Log2 treatment: control ratio SLC40A1: 24 h exposure, Ames negative compounds, one line per replicate of triplicate experiments; for SLC40A1: expression versus reference value, single measurement of three.

Data set [3] relates to HepG2 cell. The data set is described as follows: Class prediction of in vivo genotoxicity by the method of the invention (Ames stratification plus three-gene expression in HepG2). As to conditions: 62 compounds, three replicates, HepG2 24 h.

With `CC/C(=C(/CC)c1ccc(O)cc1)c1ccc(O)cc1` [DES], in the data set with HepG2 cell [1], the “At least ⅔ genes +?” value is reported as “GTX”, the “Average result over three measurements” value was “GTX” and the “Prediction (class prediction results using the method of the invention)” value (shortened to “Prediction”) is reported as “GTX”. Besides, the “In vitro GTX” value in data set [2] is listed as “+”. For the same compound, in the data set with rodents, the “In vivo GTX” value is listed as “+” and the Standard result is recorded as “GTX”. Moreover, the Ames entry in the data set on Salmonella typhimurium is “−”. Further, in the data set on C10orf65/HOGA1, the “Log2 treatment: control ratio C10orf65/HOGA1” value was 0.146 and 0.516 and 0.206; the C10orf65/HOGA1 result is listed as “+ (above the reference value)”. In the data set on PNMA6A, the “Log2 treatment: control ratio PNMA6A” value was 0.286 and 0.203 and 0.135. For the same compound, in the data set on SLC40A1, the “Log2 treatment: control ratio SLC40A1” value was 1.504 and 0.717 and 0.723; the SLC40A1 entry is recorded as “+ (above the reference value)”.
In the case of `C[C@]12CC[C@@H]3c4ccc(O)cc4CC[C@H]3[C@@H]1CC[C@@H]2O` [E2, Estradiol], the “Prediction” value in the data set on HepG2 cell [3] is on record as “NGTX”. The PNMA6A result in the data set with PNMA6A was “− (below the reference value)”. Also, the SLC40A1 entry with SLC40A1 is “− (below the reference value)”.
For `C=CCc1ccc(O)c(OC)c1` [EuG], in the data set with HepG2 cell [1], the “Average result over three measurements” value is on record as “NGTX” and the “Prediction” value is on record as “NGTX+”. Moreover, the “In vitro GTX” value in data set [2] is reported as “+”. In addition, in the data set with rodents, the “In vivo GTX” value is recorded as “−” and the Standard result was “NGTX”. Moreover, the Ames result in the data set with Salmonella typhimurium is reported as “−”. Besides, in the data set on C10orf65/HOGA1, the “Log2 treatment: control ratio C10orf65/HOGA1” value is −0.156 and 0.3 and −0.066. In addition, the “Log2 treatment: control ratio PNMA6A” value in the data set on PNMA6A is 0.39 and 0.124 and 0.031. The “Log2 treatment: control ratio SLC40A1” value in the data set on SLC40A1 is 0.161 and 0.712 and 0.293.
For the compound `COC(=O)[C@H]1[C@H]2C[C@@H]3c4[nH]c5cc(OC)ccc5c4CCN3C[C@H]2C[C@@H](OC(=O)c2cc(OC)c(OC)c(OC)c2)[C@@H]1OC` [Res], in the data set on HepG2 cell [1], the “At least ⅔ genes +?” value is recorded as “NGTX”, the “Average result over three measurements” value was “NGTX” and the “Prediction” value is “NGTX”. Moreover, in data set [2], the “In vitro GTX” value is recorded as “−”. In the data set with rodents, the “In vivo GTX” value is recorded as “−” and the Standard result is reported as “NGTX”. Besides, the Ames entry with Salmonella typhimurium is recorded as “−”. For the same compound, in the data set on C10orf65/HOGA1, the “Log2 treatment: control ratio C10orf65/HOGA1” value is 0.047 and 6.45E−05 and −0.043; the C10orf65/HOGA1 entry is “− (below the reference value)”. The “Log2 treatment: control ratio PNMA6A” value in the data set on PNMA6A was 0.09 and −0.624 and 0.288. Moreover, in the data set on SLC40A1, the “Log2 treatment: control ratio SLC40A1” value is 0.398 and −0.212 and −0.057.
`CCNc1nc(Cl)nc(NCC)n1` [Sim]: in the data set on HepG2 cell [1], the “At least ⅔ genes +?” value was “NGTX”, the “Average result over three measurements” value is listed as “NGTX”, the “Classification of NGTX compounds by the method of the invention (false positives)” value is “misclassification” and the “Prediction” value is given as “NGTX”. Moreover, the “In vitro GTX” value in data set [2] was “−”. In the data set on rodents, the “In vivo GTX” value is “−” and the Standard entry is given as “NGTX”. Moreover, the Ames result with Salmonella typhimurium is recorded as “−”. For the same compound, the “Log2 treatment: control ratio C10orf65/HOGA1” value in the data set on C10orf65/HOGA1 was 0.22 and 0.14 and 0.155. In the data set with PNMA6A, the “Log2 treatment: control ratio PNMA6A” value was 0.246 and 0.186 and 0.202; the PNMA6A result is recorded as “− (below the reference value)”. For the same compound, in the data set on SLC40A1, the “Log2 treatment: control ratio SLC40A1” value was −0.601 and −0.1 and −0.245; the SLC40A1 entry is reported as “− (below the reference value)”.
As for `Cc1cccc(Nc2cc(Cl)nc(SCC(=O)O)n2)c1C` [WY], in the data set with HepG2 cell [1], the “At least ⅔ genes +?” value is “NGTX”, the “Average result over three measurements” value was “NGTX” and the “Prediction” value is recorded as “NGTX”. Moreover, the “In vitro GTX” value in data set [2] is listed as “−”. Further, in the data set with rodents, the “In vivo GTX” value is listed as “−” and the Standard entry is reported as “NGTX”. Moreover, the Ames entry in the data set on Salmonella typhimurium is on record as “−”. In the data set with C10orf65/HOGA1, the “Log2 treatment: control ratio C10orf65/HOGA1” value is −0.061 and −0.158 and −0.053; the C10orf65/HOGA1 entry is on record as “− (below the reference value)”. For the same compound, the “Log2 treatment: control ratio PNMA6A” value in the data set with PNMA6A was 0.059 and −0.515 and 1.157. Besides, in the data set with SLC40A1, the “Log2 treatment: control ratio SLC40A1” value is −0.312 and −0.393 and −0.643; the SLC40A1 result is “− (below the reference value)”.
